Measurements as given in PubChem BioAssay (NCI).
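Protocol summary: plate cells (96-well), add compound at 5 concentrations, incubate 48 h, interpolate endpoints linearly. GI50 = concentration required for 50% inhibition of growth. TGI marks complete inhibition of growth.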

What was measured:
Experiment in all cases: NCI anticancer screen, dose series, 48 h
[1] = system: 786-0 renal
[2] = system: A498 renal
[3] = system: A549 NSCLC
[4] = system: ACHN renal
[5] = system: BT-549 breast
[6] = system: CAKI-1 renal
[7] = system: CCRF-CEM leukemia
[8] = system: COLO 205 colon
[9] = system: DU-145 prostate
[10] = system: EKVX NSCLC
[11] = system: HCC-2998 colon
[12] = system: HCT-116 colon
[13] = system: HCT-15 colon
[14] = system: HL-60(TB) leukemia
[15] = system: HOP-62 NSCLC
[16] = system: HOP-92 NSCLC
[17] = system: HS 578T breast
[18] = system: HT29 colon
[19] = system: IGROV1 ovarian
[20] = system: K-562 leukemia
[21] = system: KM12 colon
[22] = system: LOX IMVI melanoma
[23] = system: M14 melanoma
[24] = system: MALME-3M melanoma
[25] = system: MCF7 breast
[26] = system: MDA-MB-231 breast
[27] = system: MDA-MB-435
[28] = system: MDA-MB-468 breast
[29] = system: MOLT-4 leukemia
[30] = system: NCI-H226 lung
[31] = system: NCI-H23 lung
[32] = system: NCI-H460 lung
[33] = system: NCI-H522 lung
[34] = system: NCI/ADR-RES ovarian
[35] = system: OVCAR-3 ovarian
[36] = system: OVCAR-4 ovarian
[37] = system: OVCAR-5 ovarian
[38] = system: OVCAR-8 ovarian
[39] = system: PC-3 prostate
[40] = system: RPMI-8226 leukemia
[41] = system: RXF 393 renal
[42] = system: SF-268 CNS
[43] = system: SF-295 CNS
[44] = system: SF-539 CNS
[45] = system: SK-MEL-2 melanoma
[46] = system: SK-MEL-28 melanoma
[47] = system: SK-MEL-5 melanoma
[48] = system: SK-OV-3 ovarian
[49] = system: SN12C renal
[50] = system: SNB-19 CNS
[51] = system: SNB-75 CNS
[52] = system: SR leukemia
[53] = system: SW-620 colon
[54] = system: T-47D breast
[55] = system: TK-10 renal
[56] = system: U251 CNS
[57] = system: UACC-257 melanoma
[58] = system: UACC-62 melanoma
[59] = system: UO-31 renal

Compound `C#C[C@]1(O)CC[C@H]2[C@@H]3CC=C4c5sc(Nc6ccc(C(F)(F)F)cn6)nc5CC[C@]4(C)[C@H]3CC[C@@]21C` has a GI50 [1] of 1.47 µM, a TGI [1] of 3.45 µM and a GI50 [2] of 2.43 µM. The TGI [2] was 5.45 µM, the GI50 [3] was 6.95 µM and the TGI [3] was > 100 µM. It also gave a GI50 [4] of 3.34 µM, a TGI [4] of 24.2 µM and a GI50 [5] of 2.54 µM. It also gave a TGI [5] of 8.13 µM, a GI50 [6] of 1.92 µM and a TGI [6] of 5.62 µM. The GI50 [7] was 2.76 µM, the TGI [7] was > 100 µM and the GI50 [8] was 2.75 µM. It also gave a TGI [8] of 13.8 µM, a GI50 [9] of 4.6 µM and a TGI [9] of 22.5 µM. For the same compound, the GI50 [10] was 2.15 µM, the TGI [10] was 8.58 µM and the GI50 [11] was 4.82 µM. For the same compound, the TGI [11] was 18.3 µM, the GI50 [12] was 3.22 µM and the TGI [12] was 13.7 µM. It also gave a GI50 [13] of 1.72 µM, a TGI [13] of 4.96 µM and a GI50 [14] of 2.67 µM. For the same compound, the TGI [14] was 7.65 µM, the GI50 [15] was 2.32 µM and the TGI [15] was 11.3 µM. For the same compound, the GI50 [16] was 5.41 µM, the TGI [16] was 26.1 µM and the GI50 [17] was 1.45 µM. The TGI [17] was 5.27 µM, the GI50 [18] was 3.85 µM and the TGI [18] was 30.5 µM. The GI50 [19] was 4.16 µM, the TGI [19] was 21 µM and the GI50 [20] was 2.73 µM. For the same compound, the TGI [20] was > 100 µM, the GI50 [21] was 4.49 µM and the TGI [21] was 18.4 µM. For the same compound, the GI50 [22] was 1.84 µM, the TGI [22] was 4.25 µM and the GI50 [23] was 2.57 µM. For the same compound, the TGI [23] was 9.92 µM, the GI50 [24] was 2.89 µM and the TGI [24] was 14.1 µM. For the same compound, the GI50 [25] was 1.96 µM, the TGI [25] was 4.49 µM and the GI50 [26] was 1.88 µM. For the same compound, the TGI [26] was 4.44 µM, the GI50 [27] was 3.04 µM and the TGI [27] was 11.9 µM. For the same compound, the GI50 [28] was 3.16 µM, the TGI [28] was 18.9 µM and the GI50 [29] was 2.62 µM. For the same compound, the TGI [29] was 13.7 µM, the GI50 [30] was 3.91 µM and the TGI [30] was 19.9 µM. It also gave a GI50 [31] of 3.08 µM, a TGI [31] of 15.5 µM and a GI50 [32] of 2.86 µM. It also gave a TGI [32] of 10.6 µM, a GI50 [33] of 3.97 µM and a TGI [33] of 16.2 µM. The GI50 [34] was 3.76 µM, the TGI [34] was 46 µM and the GI50 [35] was 4.68 µM. The TGI [35] was 35.1 µM, the GI50 [36] was 3.65 µM and the TGI [36] was 31 µM. The GI50 [37] was 4.48 µM, the TGI [37] was 23.8 µM and the GI50 [38] was 9.96 µM. For the same compound, the TGI [38] was > 100 µM, the GI50 [39] was 1.98 µM and the TGI [39] was > 100 µM. The GI50 [40] was 0.564 µM, the TGI [40] was > 100 µM and the GI50 [41] was 0.723 µM. The TGI [41] was 2.54 µM, the GI50 [42] was 4.04 µM and the TGI [42] was 32.6 µM. It also gave a GI50 [43] of 0.565 µM, a TGI [43] of 2.07 µM and a GI50 [44] of 0.89 µM. The TGI [44] was 2.66 µM, the GI50 [45] was 2.91 µM and the TGI [45] was 10.6 µM. It also gave a GI50 [46] of 1.39 µM, a TGI [46] of 2.93 µM and a GI50 [47] of 2.09 µM. For the same compound, the TGI [47] was 4.8 µM, the GI50 [48] was 2.83 µM and the TGI [48] was 26.7 µM. For the same compound, the GI50 [49] was 4.77 µM, the TGI [49] was 19.2 µM and the GI50 [50] was 2.9 µM. The TGI [50] was 12.2 µM, the GI50 [51] was 1.27 µM and the TGI [51] was 12.7 µM. It also gave a GI50 [52] of 2.47 µM, a TGI [52] of 20.4 µM and a GI50 [53] of 2.04 µM. For the same compound, the TGI [53] was 5.03 µM, the GI50 [54] was 3.58 µM and the TGI [54] was 18.4 µM. It also gave a GI50 [55] of 6.83 µM, a TGI [55] of 91.2 µM and a GI50 [56] of 1.72 µM. For the same compound, the TGI [56] was 11.3 µM, the GI50 [57] was 3.85 µM and the TGI [57] was 18.4 µM. The GI50 [58] was 1.95 µM, the TGI [58] was 4.5 µM and the GI50 [59] was 3.09 µM. It also gave a TGI [59] of 13.7 µM.
